Experimental data as given in patent publication US12144808B2, “Compositions and methods” (INTRA-CELLULAR THERAPIES, INC., priority 2018, dated 2024).
Values belong to the compound of their own block, whether it stands above or below them.

How the values were obtained:
oral bioavailability = conditions: in vivo
[1] = Example 1A: pharmacokinetics of subcutaneous (SC) and sublingual (SL) dosing in dogs; type: in vivo; conditions: male, beagle, dog, 1 mg/kg, tosylate salt, plasma; for AUC: 0-24 hours
Description: SC Administration: Six male beagle dogs between 2 and 5 years of age are randomized in two groups of three dogs each. […] Dogs in group 2 are administered the Compound of Formula II at a dose of 1 mg/kg (free base equivalent) in a 0.5% methylcellulose/distilled water vehicle. Administration is subcutaneous in the intrascapular region via a 22 or 23 gauge needle. Whole blood samples are collected via the dog's cephalic vein pre-dose, and at post-dose time-points 5, 15 and 30 minutes, 1, 2, 4, 6, 8 and 24 hours. Following a minimum 7-day washout period, the dogs are transferred to the sublingual portion of the study.
Dogs in group 2 are administered the Compound of Formula II at a dose of 1 mg/kg (free base equivalent) in a 0.5% methylcellulose/distilled water vehicle. The animals are anesthetized prior to administration of the dose using propofol (6 mg/kg) and anesthesia is maintained for 30 minutes using 3-4.5% isoflurane. Administration is sublingual and the dosage is applied for 30 minutes, then wiped off using unwoven gauze. Whole blood samples are collected via the dog's cephalic vein pre-dose, and at post-dose time-points 5, 15 and 30 minutes, 1, 2, 4, 6, 8, 24, 36 and 48 hours.
All blood samples are processed to plasma and analyzed for drug concentrations using liquid chromatography-tandem mass spectrometry (LC-MS/MS). Area under the curve (AUC) of parent and metabolites based on plasma versus time data are calculated using Prism 5.04 software (GraphPad Software, Inc.).

[2] = Example 1B: SC and SL pharmacokinetics in dogs with metabolite analysis; type: in vivo; conditions: male, beagle, dog, 1 mg/kg, plasma, analyte parent; for AUC: 0-24 hours
Description: SC Administration: Six male beagle dogs between 2 and 5 years of age are randomized in two groups of three dogs each. […] Administration is subcutaneous in the intrascapular region via a 22 or 23 gauge needle. […] Following a minimum 7-day washout period, the dogs are transferred to the sublingual portion of the study. SL Administration: […] The animals are anesthetized prior to administration of the dose using propofol (6 mg/kg) and anesthesia is maintained for 30 minutes using 3-4.5% isoflurane. Administration is sublingual and the dosage is applied for 30 minutes, then wiped off using unwoven gauze. […] All blood samples are processed to plasma and analyzed for drug concentrations using liquid chromatography-tandem mass spectrometry (LC-MS/MS). Area under the curve (AUC) of parent and metabolites based on plasma versus time data are calculated using Prism 5.04 software (GraphPad Software, Inc.). A second study is performed substantially as described for Example 1A, except that plasma samples are analyzed for the parent (administered) compounds, as well as for the major known metabolites. […] The results are summarized in Table 1B below (AUC is shown for 0-24 hours): […]

[3] = Example 2: pharmacokinetics of oral dosing in dogs; type: in vivo; conditions: both sexes, beagle, dog, plasma, oral capsules, tosylate salt; for AUC: 0-24 hours
Description: For control, the dogs are administered empty capsules. For the Compound of Formula I, the dogs are administered normal-release oral capsules. Blood samples are obtained at 0.25 hours, 0.5 hours, 1 hour, 4 hours, 8 hour and 24 hours. […] Cmax, Tmax and area-under-the-curve (AUC, 0-24 hours) are calculated using Phoenix WinNonlin software.

[4] = Example 3: pharmacokinetics of SC and IV dosing in monkeys; type: in vivo; conditions: cynomolgus monkey, 0.5 mg/kg, plasma; for AUC: read-out: AUC, Parent Compound; for Cmax: read-out: Cmax, Parent Compound; for Tmax: read-out: Tmax, Parent Compound
Description: Six Cynomolgus monkeys are divided into two groups for IV and SC dosing with the Compound of Formula I. The animals are dosed in a fasting state. Blood samples are collected pre-dose, and at 5 minutes, 15 minutes, 1, 2, 4, 6, 8, 24, 36 and 48 hours post-dose. All blood samples are processed to plasma and later analyzed by liquid chromatography-tandem mass spectrometry. […] PK parameters are calculated using PK Solutions 2.0 software (Summit Research Services, Colorado, US).

[5] = target: H1 histaminergic receptors (Homo sapiens, UniProt P35367); conditions: cited from earlier work
5-HT2C receptors = target: T1, 5-HT2C receptors (Homo sapiens, UniProt P28335); conditions: cited from earlier work
T1 sequence (P28335 33-458): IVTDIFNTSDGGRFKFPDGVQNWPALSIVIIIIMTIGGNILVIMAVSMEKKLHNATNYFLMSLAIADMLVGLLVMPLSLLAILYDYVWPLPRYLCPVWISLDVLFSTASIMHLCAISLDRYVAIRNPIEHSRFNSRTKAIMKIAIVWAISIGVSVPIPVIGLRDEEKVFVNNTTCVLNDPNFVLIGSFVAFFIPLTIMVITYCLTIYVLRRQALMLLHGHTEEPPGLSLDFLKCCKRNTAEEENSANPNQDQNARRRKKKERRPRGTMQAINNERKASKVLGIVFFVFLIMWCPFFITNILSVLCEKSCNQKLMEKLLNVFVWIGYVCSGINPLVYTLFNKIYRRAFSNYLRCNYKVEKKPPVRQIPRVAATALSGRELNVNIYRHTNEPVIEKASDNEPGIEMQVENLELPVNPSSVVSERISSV

muscarinic receptors = conditions: cited from earlier work

Chain of H1 histaminergic receptors (P35367 whole entry): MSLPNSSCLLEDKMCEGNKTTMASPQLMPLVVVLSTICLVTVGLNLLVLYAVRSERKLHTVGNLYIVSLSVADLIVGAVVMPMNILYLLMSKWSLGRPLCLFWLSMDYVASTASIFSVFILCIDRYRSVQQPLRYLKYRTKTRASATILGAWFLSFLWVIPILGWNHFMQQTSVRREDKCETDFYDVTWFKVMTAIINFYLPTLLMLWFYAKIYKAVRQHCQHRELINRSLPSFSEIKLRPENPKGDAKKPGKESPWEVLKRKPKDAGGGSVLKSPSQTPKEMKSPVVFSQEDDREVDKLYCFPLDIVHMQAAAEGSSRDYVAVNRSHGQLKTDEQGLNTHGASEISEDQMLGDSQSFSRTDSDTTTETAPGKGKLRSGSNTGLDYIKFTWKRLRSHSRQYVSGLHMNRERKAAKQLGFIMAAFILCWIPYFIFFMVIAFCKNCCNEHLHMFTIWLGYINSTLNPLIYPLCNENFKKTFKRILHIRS

- bioavailability (oral bioavailability): ≤ 5%
- Cmax ([1]; SC): 110 ng/mL
- Tmax ([1]; SC): 1 h
- AUC ([1]; SC): 813 ng·h/mL
- Cmax ([1]; SL): 259 ng/mL
- Tmax ([1]; SL): 1 h
- AUC ([1]; SL): 734 ng·h/mL
- AUC ([2]; SC): 560 ng·h/mL
- AUC ([2]; SL): 507 ng·h/mL
- Cmax ([2]; SC): 76 ng/mL
- Tmax ([2]; SC): 1 h
- Cmax ([2]; SL): 179 ng/mL
- Tmax ([2]; SL): 1 h
- Cmax ([3]; 2.5 mg/kg): 5.51 ng/mL
- Tmax ([3]; 2.5 mg/kg): 0.469 h
- AUC ([3]; 2.5 mg/kg): 40 ng·h/mL
- Cmax ([3]; 5 mg/kg): 7.72 ng/mL
- Tmax ([3]; 5 mg/kg): 0.875 h
- AUC ([3]; 5 mg/kg): 52.5 ng·h/mL
- Cmax ([3]; 10 mg/kg): 29 ng/mL
- Tmax ([3]; 10 mg/kg): 0.813 h
- AUC ([3]; 10 mg/kg): 142 ng·h/mL
- Cmax ([3]; 15 mg/kg): 44.5 ng/mL
- Tmax ([3]; 15 mg/kg): 1.63 h
- AUC ([3]; 15 mg/kg): 248 ng·h/mL
- AUC ([4]; Cynomolgus, SC): 220 ng·h/mL
- Cmax ([4]; Cynomolgus, SC): 23 ng/mL
- Tmax ([4]; Cynomolgus, SC): 2 h
- bioavailability ([4]; Cynomolgus, subcutaneous, SC administration, read-out: bioavailability (comparison of IV to SC pharmacokinetics)): ~74%
- AUC ([4]; IV): 297 ng·h/mL
- Cmax ([4]; IV): 94 ng/mL
- Tmax ([4]; IV): 0.083 h
Compound: CN1CCN2c3c(cccc31)[C@@H]1CN(CCCC(=O)c3ccc(F)cc3)CC[C@@H]12 [Compound of Formula I, 1-(4-fluoro-phenyl)-4-((6bR,10aS)-3-methyl-2,3,6b,9,10,10a-hexahydro-1H,7H-pyrido[3′,4′:4,5]pyrrolo[1,2,3-de]quinoxalin-8-yl)-butan-1-one]
- binding to H1 histaminergic receptors [5]: negligible binding
- binding to 5-HT2C receptors (5-HT2C receptors): negligible binding
- binding to muscarinic receptors (muscarinic receptors): negligible binding

- Cmax ([1]; SC): 79 ng/mL
- Tmax ([1]; SC): 1 h
- AUC ([1]; SC): 785 ng·h/mL
- Cmax ([1]; SL): 562 ng/mL
- Tmax ([1]; SL): 1 h
- AUC ([1]; SL): 1260 ng·h/mL
- AUC ([2]; SC): 785 ng·h/mL
- AUC ([2]; SL): 1260 ng·h/mL
- Cmax ([2]; SC): 79 ng/mL
- Tmax ([2]; SC): 1 h
- Cmax ([2]; SL): 562 ng/mL
- Tmax ([2]; SL): 1 h
Compound: [2H]C1([2H])CN2c3c(cccc3N1C)[C@@H]1CN(CCCC(=O)c3ccc(F)cc3)CC[C@@H]12 [Compound of Formula II, 1-(4-fluoro-phenyl)-4-((6bR,10aS)-2,2-d2-3-methyl-2,3,6b,9,10,10a-hexahydro-1H,7H-pyrido[3′,4′:4,5]pyrrolo[1,2,3-de]quinoxalin-8-yl)-butan-1-one]
